Experimental findings from patent US12312332B2 (Merck Sharp & Dohme LLC., priority 2019, dated 2025) are described below.

The experiment concerns the target T1, human OX2R (Homo sapiens, UniProt O43614).
T1 construct: expressed in transfected cells; host or cells: Chinese hamster ovary (CHO) cells, kept under G418 selection
T1 sequence (O43614 1-444): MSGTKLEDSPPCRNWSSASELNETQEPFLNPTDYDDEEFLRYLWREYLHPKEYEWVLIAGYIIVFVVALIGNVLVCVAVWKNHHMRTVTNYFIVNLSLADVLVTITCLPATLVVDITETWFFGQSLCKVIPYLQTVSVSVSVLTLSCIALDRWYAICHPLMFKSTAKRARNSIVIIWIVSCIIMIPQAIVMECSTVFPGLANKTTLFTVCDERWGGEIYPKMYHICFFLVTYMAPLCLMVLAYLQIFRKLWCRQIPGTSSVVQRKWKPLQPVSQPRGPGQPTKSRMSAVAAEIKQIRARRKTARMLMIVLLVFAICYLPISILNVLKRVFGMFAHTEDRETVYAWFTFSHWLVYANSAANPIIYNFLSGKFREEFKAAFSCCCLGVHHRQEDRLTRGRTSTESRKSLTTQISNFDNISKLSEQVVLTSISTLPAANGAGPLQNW
Description: IPOne (IP-One) orexin receptor agonist assay in CHO cells expressing human OX2R. The format is cell-based. To be noted: for EC50: CHO cells expressing human OX2R, IP-One detection, 2 hours incubation, four parameter logistic fit, read-out: OX2R Potency, EC50; for % max agonist effect (Emax): human OX2R, percentage of sample raw value/mean max effect (reference compound at 1 uM with 100% activity).

As usually defined, the EC50 is the concentration giving half of the maximal effect. In the case of `Cn1cc(N2CC[C@H](NS(C)(=O)=O)[C@@H]2CO[C@H]2CC[C@@H](c3ccccc3)CC2)ccc1=O` [Example 112, N-((2R,3S)-1-(1-methyl-6-oxo-1,6-dihydropyridin-3-yl)-2-((((CIS)-4-phenylcyclohexyl)oxy)methyl)pyrrolidin-3-yl)methanesulfonamide], the EC50 was 4650 nM and the “% max agonist effect (Emax)” value amounted to 88.2%.
The corresponding values for `CS(=O)(=O)N[C@H]1CCN(c2cc(O)c(Cl)cn2)[C@H]1CO[C@H]1CC[C@@H](c2ccccc2)CC1` [Example 113, N-((2R,3S)-1-(5-chloro-4-hydroxypyridin-2-yl)-2-((((CIS)-4-phenylcyclohexyl)oxy)methyl)pyrrolidin-3-yl)methanesulfonamide] are 1.1 nM and 102.4%.
The corresponding values for `CS(=O)(=O)N[C@H]1CCN(c2ncc(Cl)c(O)c2F)[C@H]1CO[C@H]1CC[C@@H](c2ccccc2)CC1` [Example 114, N-((2R,3S)-1-(5-chloro-3-fluoro-4-hydroxypyridin-2-yl)-2-((((CIS)-4-phenylcyclohexyl)oxy)methyl)pyrrolidin-3-yl)methanesulfonamide] are 1.7 nM and 102.4%.
In the same order, the values of `COc1ccnc(N2CC[C@H](NS(C)(=O)=O)[C@@H]2CO[C@H]2CC[C@@H](c3ccccc3)CC2)c1F` [Example 115, N-((2R,3S)-1-(3-fluoro-4-methoxypyridin-2-yl)-2-((((CIS)-4-phenylcyclohexyl)oxy)methyl)pyrrolidin-3-yl)methanesulfonamide] are 2410 nM and 93.7%.
For the compound `Cn1c(N2CC[C@H](NS(C)(=O)=O)[C@@H]2CO[C@H]2CC[C@@H](c3ccccc3)CC2)cccc1=O` [Example 116, N-((2R,3S)-1-(1-methyl-6-oxo-1,6-dihydropyridin-2-yl)-2-((((CIS)-4-phenylcyclohexyl)oxy)methyl)pyrrolidin-3-yl)methanesulfonamide], the EC50 stood at 393 nM and the “% max agonist effect (Emax)” value stood at 99.6%.
In the same order, the values of `CS(=O)(=O)N[C@H]1CCN(c2nccc(O)c2F)[C@H]1CO[C@H]1CC[C@@H](c2ccccc2)CC1` [Example 117, N-((2R,3S)-1-(3-fluoro-4-hydroxypyridin-2-yl)-2-((((CIS)-4-phenylcyclohexyl)oxy)methyl)pyrrolidin-3-yl)methanesulfonamide] are 0.58 nM and 100.7%.
In the same order, the values of `Cn1ccc(N2CC[C@H](NS(C)(=O)=O)[C@@H]2CO[C@H]2CC[C@@H](c3ccccc3)CC2)cc1=O` [Example 118, N-((2R,3S)-1-(1-methyl-2-oxo-1,2-dihydropyridin-4-yl)-2-((((CIS)-4-phenylcyclohexyl)oxy)methyl)pyrrolidin-3-yl)methanesulfonamide] are 33.2 nM and 100.2%.
The corresponding values for `COc1cnc(N2CC[C@H](NS(C)(=O)=O)[C@@H]2CO[C@H]2CC[C@@H](c3ccccc3)CC2)cc1O` [Example 119, N-((2R,3S)-1-(4-hydroxy-5-methoxypyridin-2-yl)-2-((((CIS)-4-phenylcyclohexyl)oxy)methyl)pyrrolidin-3-yl)methanesulfonamide] are 35.8 nM and 101.8%.
Turning to `CS(=O)(=O)N[C@H]1CCN(c2nccc(O)c2Cl)[C@H]1CO[C@H]1CC[C@@H](c2ccccc2)CC1` [Example 120, N-((2R,3S)-1-(3-chloro-4-hydroxypyridin-2-yl)-2-((((CIS)-4-phenylcyclohexyl)oxy)methyl)pyrrolidin-3-yl)methanesulfonamide], the 50% effective concentration (EC50) came out at 10.8 nM and the “% max agonist effect (Emax)” value amounted to 100.5%.
With `CS(=O)(=O)N[C@H]1CCN(c2cnccc2C(F)F)[C@H]1CO[C@H]1CC[C@@H](c2ccccc2)CC1` [Example 121, N-((2R,3S)-1-(4-(difluoromethyl)pyridin-3-yl)-2-((((CIS)-4-phenylcyclohexyl)oxy)methyl)pyrrolidin-3-yl)methanesulfonamide], the 50% effective concentration (EC50) was 16.9 nM and the “% max agonist effect (Emax)” value was determined as 101.1%.
